In US9700344B2, “Method for treating chronic wounds with an extracellular polymeric substance solvating system” (priority 2008, dated 2017):

What was measured:
[1] = tested on: biofilms of Pseudomonas aeruginosa PAO1, Enterococcus faecalis V583 and Staphylococcus aureus Mu50; assay: Biofilm dry weight after incubation of formed three-species biofilms with treatments; assay type: cell-based; conditions: biomass dry weight of treated mixed biofilm, 80° C. 48 hours drying; incubation 37° C., 140 rpm; triplicate; Control 126
Method: (§1) Pseudomonas aeruginosa PAO1 (ATCC number: BAA-47), Enterococcus faecalis V583 (ATCC number: 700802), and Staphylococcus aureus Mu50 (ATCC number: 700699) grown on agar plates made from tryptic soy broth (TSB, Sigma Chemical Co., St. Louis, Mo., USA) were inoculated into TSB broth and grown at 37° C. in a shaker for 16 hr. An aliquot was diluted in TSB broth to a series of dilutions for each individual bacteria type. The diluted bacteria were plated out to count colony forming units (CFU). They were further diluted to 1×10^6 cfu ml^−1 and mixed equally as inoculums. Bolton broth (Oxoid Ltd, Basingstock, Hampshire, England) with 50% Bovine plasma (Biomeda, Foster City, Calif., USA) was used for biofilm formation media. […]
(§2) In a series of runs the formed biofilms were washed and then incubated with the three CAZS solutions, then associated with a 30 μg/ml solution of Gentamicin sulfate (MP Biomedicals, Illkirch, France) in distilled water, or with a 20 ppm solution of 2,4,4′-trichloro-2-hydroxydiphenyl ether (Triclosan, KIC Chemicals, New Paltz, N.Y., USA) dissolved in propylene glycol (ScienceLab, Houston, Tex., USA). […] The biomass dry weight was measured as the total weight minus the empty tube weight measured before use. […] A separate set of tubes in triplicate was used for DNA extraction and quantitative PCR analysis to determine relative bacterial levels in the treated biofilms.

P. aeruginosa = assay: Quantitative PCR analysis of relative bacterial levels in treated biofilms; assay type: cell-based, Pseudomonas aeruginosa PAO1; conditions: DNA extraction and quantitative PCR of treated mixed biofilm; Control 46.8
Method: as §1, §2

E. faecalis = assay: as above; assay type: cell-based, Enterococcus faecalis V583; conditions: DNA extraction and quantitative PCR of treated mixed biofilm; Control 29.7
Method: as §1, §2

S. aureus = assay: as above; assay type: cell-based, Staphylococcus aureus Mu50; conditions: DNA extraction and quantitative PCR of treated mixed biofilm; Control 23.5
Method: Pseudomonas aeruginosa PAO1 (ATCC number: BAA-47), Enterococcus faecalis V583 (ATCC number: 700802), and Staphylococcus aureus Mu50 (ATCC number: 700699) grown on agar plates made from tryptic soy broth (TSB, Sigma Chemical Co., St. Louis, Mo., USA) were inoculated into TSB broth and grown at 37° C. in a shaker for 16 hr. An aliquot was diluted in TSB broth to a series of dilutions for each individual bacteria type. The diluted bacteria were plated out to count colony forming units (CFU). They were further diluted to 1×10^6 cfu ml^−1 and mixed equally as inoculums. Bolton broth (Oxoid Ltd, Basingstock, Hampshire, England) with 50% Bovine plasma (Biomeda, Foster City, Calif., USA) was used for biofilm formation media. Glass 16×150 mm test tubes with caps were autoclaved, and 7 ml biofilm formation media aseptically dispensed in each tube. The normalized cultures of the three bacteria were mixed and 10 μl portions of the combined and normalized 1×10^6 CFU ml^−1 culture were inoculated into glass tubes by ejecting the pipette tips into the tubes. […]
The resulting mixtures were stirred at 37° C. and 140 rpm for 1, 2, 3 and 4 hours. […] The biomass dry weight was measured as the total weight minus the empty tube weight measured before use. […] A separate set of tubes in triplicate was used for DNA extraction and quantitative PCR analysis to determine relative bacterial levels in the treated biofilms.

## Oc1cc(Cl)ccc1Oc1ccc(Cl)cc1Cl [20 ppm Triclosan, 2,4,4′-trichloro-2-hydroxydiphenyl ether]
[1]
  Dry Weight: 88 mg
P. aeruginosa
  Relative Bacterial Levels P. aeruginosa: 60.0
E. faecalis
  Relative Bacterial Levels E. faecalis: 39.9
S. aureus
  Relative Bacterial Levels S. aureus: 0.13

## Gentamicin sulfate [20 mg/ml Gentamicin]
[1]
  Dry Weight: 78 mg
P. aeruginosa
  Relative Bacterial Levels P. aeruginosa: 0.2
E. faecalis
  Relative Bacterial Levels E. faecalis: 50.3
S. aureus
  Relative Bacterial Levels S. aureus: 49.6
